The values below come from ChEMBL document CHEMBL5131433, “Novel benzothiazole-based dual VEGFR-2/EGFR inhibitors targeting breast and liver cancers: Synthesis, cytotoxic activity, QSAR and molecular docking studies” (Bioorg Med Chem Lett, 2022).

For data set [1], the system named is MCF7. In words: cells. The conditions noted are these: Homo sapiens, MCF7, 72 h.
Description: Anticancer activity against human MCF7 cells assessed as inhibition of cell growth incubated for 3 days by MTT assay
For data set [2], the system named is HepG2. Briefly: cells. The settings on record: Homo sapiens, HepG2, 72 h.
Description: Anticancer activity against human HepG2 cells assessed as inhibition of cell growth incubated for 3 days by MTT assay
The subject of data set [3] is MDA-MB-231. Briefly: Anticancer activity against human MDA-MB-231 cells assessed as inhibition of cell growth incubated for 3 days by MTT assay. It is filed as functional, cell-based. The settings on record: MDA-MB-231, 72 h. A general note: Tetrazolium dyes change colour on reduction, which living cells bring about.
Data set [4] is described as follows: Cytotoxicity against human WI-38 cells assessed as inhibition of cell growth incubated for 3 days by MTT assay. It is filed as toxicity, cell-based.
Data set [5] has as its target Vascular endothelial growth factor receptor 2 (Homo sapiens, UniProt P35968). In words: Inhibition of VEGFR2 (unknown origin).
Data set [6] concerns the target Epidermal growth factor receptor (Homo sapiens, UniProt P00533). Briefly: Inhibition of EGFR (unknown origin).

The structures appear in SMILES notation.

Epidermal growth factor receptor, sequence (P00533 whole entry): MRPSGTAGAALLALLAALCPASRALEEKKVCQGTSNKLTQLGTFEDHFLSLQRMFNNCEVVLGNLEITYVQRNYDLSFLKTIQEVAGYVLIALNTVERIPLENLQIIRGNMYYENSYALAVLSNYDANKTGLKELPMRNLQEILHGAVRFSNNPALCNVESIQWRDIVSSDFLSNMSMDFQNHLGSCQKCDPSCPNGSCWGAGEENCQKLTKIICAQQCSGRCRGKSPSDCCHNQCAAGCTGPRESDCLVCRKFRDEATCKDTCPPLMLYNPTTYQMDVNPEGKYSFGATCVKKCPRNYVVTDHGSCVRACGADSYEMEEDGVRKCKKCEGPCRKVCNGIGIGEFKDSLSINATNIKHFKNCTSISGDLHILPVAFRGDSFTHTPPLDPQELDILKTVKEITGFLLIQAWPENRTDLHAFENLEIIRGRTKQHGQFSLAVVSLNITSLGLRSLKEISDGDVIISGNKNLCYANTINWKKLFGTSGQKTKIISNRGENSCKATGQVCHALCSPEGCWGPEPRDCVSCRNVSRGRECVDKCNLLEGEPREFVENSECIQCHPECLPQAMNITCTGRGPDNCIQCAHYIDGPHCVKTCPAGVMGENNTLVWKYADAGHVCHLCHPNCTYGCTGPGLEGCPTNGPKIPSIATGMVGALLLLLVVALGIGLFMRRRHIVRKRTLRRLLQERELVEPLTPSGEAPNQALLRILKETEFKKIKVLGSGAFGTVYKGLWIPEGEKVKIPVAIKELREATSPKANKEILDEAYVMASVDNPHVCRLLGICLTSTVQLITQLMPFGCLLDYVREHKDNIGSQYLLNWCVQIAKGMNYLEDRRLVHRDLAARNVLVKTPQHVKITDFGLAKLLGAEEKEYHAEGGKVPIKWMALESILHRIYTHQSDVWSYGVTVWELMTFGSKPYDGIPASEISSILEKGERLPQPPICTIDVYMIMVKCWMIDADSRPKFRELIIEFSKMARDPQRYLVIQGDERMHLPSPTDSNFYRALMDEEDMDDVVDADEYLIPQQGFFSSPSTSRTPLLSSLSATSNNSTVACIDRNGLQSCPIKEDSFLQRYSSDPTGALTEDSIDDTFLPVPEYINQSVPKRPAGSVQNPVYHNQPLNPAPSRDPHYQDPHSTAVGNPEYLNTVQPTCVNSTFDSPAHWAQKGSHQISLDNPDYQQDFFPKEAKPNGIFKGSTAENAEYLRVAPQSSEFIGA
Vascular endothelial growth factor receptor 2, sequence (P35968 whole entry): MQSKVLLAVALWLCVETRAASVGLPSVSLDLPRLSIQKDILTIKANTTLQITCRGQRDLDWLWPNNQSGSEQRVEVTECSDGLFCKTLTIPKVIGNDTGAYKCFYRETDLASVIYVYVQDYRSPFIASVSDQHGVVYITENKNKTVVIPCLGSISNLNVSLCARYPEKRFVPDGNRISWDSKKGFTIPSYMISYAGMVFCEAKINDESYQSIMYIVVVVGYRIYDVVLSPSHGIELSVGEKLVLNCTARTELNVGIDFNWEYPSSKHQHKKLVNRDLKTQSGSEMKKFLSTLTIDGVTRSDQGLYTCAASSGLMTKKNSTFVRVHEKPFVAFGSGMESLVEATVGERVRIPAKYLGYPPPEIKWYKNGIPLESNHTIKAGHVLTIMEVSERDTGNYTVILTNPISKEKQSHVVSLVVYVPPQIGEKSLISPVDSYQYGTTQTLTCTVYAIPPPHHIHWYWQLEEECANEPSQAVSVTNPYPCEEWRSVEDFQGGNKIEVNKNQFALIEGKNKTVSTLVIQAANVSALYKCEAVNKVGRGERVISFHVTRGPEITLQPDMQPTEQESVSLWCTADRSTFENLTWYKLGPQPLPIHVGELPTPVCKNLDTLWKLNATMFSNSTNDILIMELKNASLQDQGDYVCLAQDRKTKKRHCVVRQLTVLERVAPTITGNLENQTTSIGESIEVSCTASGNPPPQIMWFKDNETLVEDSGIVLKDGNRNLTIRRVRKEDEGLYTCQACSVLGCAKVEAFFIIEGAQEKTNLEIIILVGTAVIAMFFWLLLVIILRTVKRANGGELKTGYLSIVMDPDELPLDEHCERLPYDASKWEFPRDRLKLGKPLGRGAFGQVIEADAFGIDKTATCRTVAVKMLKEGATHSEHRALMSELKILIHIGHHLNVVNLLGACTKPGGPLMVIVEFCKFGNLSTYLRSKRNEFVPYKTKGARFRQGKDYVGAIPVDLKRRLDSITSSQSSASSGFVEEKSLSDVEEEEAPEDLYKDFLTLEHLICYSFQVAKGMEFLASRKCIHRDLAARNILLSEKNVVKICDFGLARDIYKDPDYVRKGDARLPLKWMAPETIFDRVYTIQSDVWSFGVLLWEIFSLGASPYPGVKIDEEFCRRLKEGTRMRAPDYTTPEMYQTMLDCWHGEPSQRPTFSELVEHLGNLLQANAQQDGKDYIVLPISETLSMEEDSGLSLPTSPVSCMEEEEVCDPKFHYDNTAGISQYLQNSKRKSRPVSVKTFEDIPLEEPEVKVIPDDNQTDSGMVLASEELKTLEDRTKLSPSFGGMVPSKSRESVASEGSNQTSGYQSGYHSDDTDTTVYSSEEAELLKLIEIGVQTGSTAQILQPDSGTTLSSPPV

For the compound `COc1cc(-c2nc3ccccc3s2)ccc1OCC(=O)NNC(=O)CN[C@@H](CCSC)C(=O)O`, the IC50 (in general, the concentration needed to halve the response being measured) in data set [1] was 1950 nM; in data set [2] it was 3780 nM.

For `COc1cc(-c2nc3ccccc3s2)ccc1OCC(=O)NNC(=O)CN[C@@H](Cc1c[nH]c2ccccc12)C(=O)O`, the half-maximal inhibitory concentration (IC50) in data set [3] was determined as 10400 nM; in data set [5], 162 nM; in data set [6], 209 nM; in data set [1], 830 nM; in data set [2], 2580 nM. Also, in data set [4], the IC50 at 3 days worked out at 60800 nM.

Turning to `COc1cc(-c2nc3ccccc3s2)ccc1OCC(=O)NNC(=O)CNC(=N)NCCC[C@H](N[N+](=O)[O-])C(=O)O`, the IC50 in data set [1] came out at 1960 nM; in data set [2], 3490 nM.

`COc1cc(-c2nc3ccccc3s2)ccc1OCC(=O)NNC(O)CN(C)CC(=O)O` (stereo not drawn): the values for the IC50 in data set [1] and in data set [2] were 1960 nM and 3030 nM, respectively.

`COc1cc(-c2nc3ccccc3s2)ccc1OCC(=O)NNC(=O)CCl`: the IC50 in data set [1] is 780 nM; in data set [2], 2890 nM.

For the compound `CCOC(=O)[C@H](Cc1c[nH]cn1)NCC(=O)NNC(=O)COc1ccc(-c2nc3ccccc3s2)cc1OC`, the IC50 was found to be 5670 nM in data set [3]; 152 nM in data set [5]; 157 nM in data set [6]; 740 nM in data set [1]; 2680 nM in data set [2]. For the same compound, the IC50 at 3 days in data set [4] came to 89400 nM.

As to `CCOC(=O)[C@H](CS(=O)(=O)O)NCC(=O)NNC(=O)COc1ccc(-c2nc3ccccc3s2)cc1OC`, the IC50 in data set [1] came to 1990 nM; in data set [2], 3360 nM.

As to `COc1cc(-c2nc3ccccc3s2)ccc1OCC(=O)NNC(=O)CN1CCC[C@H]1C(=O)O`, the IC50 in data set [3] amounted to 8880 nM; in data set [5], 188 nM; in data set [6], 342 nM; in data set [1], 840 nM; in data set [2], 2650 nM. In addition, the IC50 at 3 days in data set [4] worked out at 68600 nM.

Take `CCOC(=O)CN(C)CC(=O)NNC(=O)COc1ccc(-c2nc3ccccc3s2)cc1OC`: the values for the IC50 in data set [1] and in data set [2] were 1980 nM and 3180 nM, respectively.

Regarding `CCOC(=O)[C@H](CS)N(CC(=O)NNC(=O)COc1ccc(-c2nc3ccccc3s2)cc1OC)C(C)=O`, the figures for the IC50 in data set [1] and in data set [2] were 1890 nM and 3010 nM, respectively.

For `CC[C@H](C)[C@H](NCC(=O)NNC(=O)COc1ccc(-c2nc3ccccc3s2)cc1OC)C(=O)O`, the results for the IC50 in data set [1] and in data set [2] were 1710 nM and 3540 nM, respectively.

Regarding `COc1cc(-c2nc3ccccc3s2)ccc1OCC(=O)NNC(=O)CN[C@@H](CS)C(=O)O`, the IC50 in data set [1] was 1230 nM; in data set [2], 3120 nM.

Regarding `CCOC(=O)[C@@H]1CCCN1CC(=O)NNC(=O)COc1ccc(-c2nc3ccccc3s2)cc1OC`, the IC50 in data set [3] was 7280 nM; in data set [5] it was 163 nM; in data set [6] it was 109 nM; in data set [1] it was 770 nM; in data set [2], 2800 nM. In addition, the IC50 at 3 days in data set [4] worked out at 75100 nM.

For the compound `COc1cc(-c2nc3ccccc3s2)ccc1OCC(=O)NNC(=O)CN[C@@H](Cc1c[nH]cn1)C(=O)O`, the IC50 was found to be 11000 nM in data set [3]; 171 nM in data set [5]; 305 nM in data set [6]; 890 nM in data set [1]; 2800 nM in data set [2]. The IC50 at 3 days in data set [4] worked out at 49500 nM.

`CCOC(=O)[C@H](CCCNC(=N)NCC(=O)NNC(=O)COc1ccc(-c2nc3ccccc3s2)cc1OC)N[N+](=O)[O-]`: the IC50 in data set [1] was determined as 1950 nM; in data set [2], 3730 nM.

For the compound `CC[C@H](C)[C@@H](NCC(=O)NNC(=O)COc1ccc(-c2nc3ccccc3s2)cc1OC)C(=O)O`, the IC50 amounted to 1790 nM in data set [1] and 3990 nM in data set [2].

Regarding `COc1cc(-c2nc3ccccc3s2)ccc1OCC(=O)NNC(=O)CN[C@@H](CS(=O)(=O)O)C(=O)O`, the IC50 was found to be 1870 nM in data set [1] and 3690 nM in data set [2].

On to `CCOC(=O)[C@H](NCC(=O)NNC(=O)COc1ccc(-c2nc3ccccc3s2)cc1OC)[C@@H](C)CC`, for which the IC50 in data set [1] came to 2900 nM; in data set [2] it was 3970 nM.

With `COc1cc(-c2nc3ccccc3s2)ccc1OCC(=O)NNC(=O)CN(C(C)=O)[C@@H](CS)C(=O)O`, the IC50 in data set [1] turned out to be 1750 nM; in data set [2], 3420 nM.

Turning to `CCOC(=O)[C@H](Cc1c[nH]c2ccccc12)NCC(=O)NNC(=O)COc1ccc(-c2nc3ccccc3s2)cc1OC`, the IC50 in data set [3] was 5450 nM; in data set [5], 178 nM; in data set [6], 114 nM; in data set [1], 730 nM; in data set [2], 2540 nM. Further, the concentration for half-maximal inhibition (IC50) at 3 days in data set [4] was 92700 nM.

As to `CCOC(=O)[C@@H](NCC(=O)NNC(=O)COc1ccc(-c2nc3ccccc3s2)cc1OC)[C@@H](C)CC`, the results for the IC50 in data set [1] and in data set [2] were 1950 nM and 3460 nM, respectively.

Turning to `CCOC(=O)[C@H](CS)NCC(=O)NNC(=O)COc1ccc(-c2nc3ccccc3s2)cc1OC`, the IC50 was 2880 nM in data set [1] and 3760 nM in data set [2].

For `CCOC(=O)[C@H](CCSC)NCC(=O)NNC(=O)COc1ccc(-c2nc3ccccc3s2)cc1OC`, the IC50 in data set [1] came to 1760 nM; in data set [2], 3330 nM.

For `COc1cccc2c1C(=O)c1c(O)c3c(c(O)c1C2=O)C[C@@](O)(C(=O)CO)C[C@@H]3O[C@H]1C[C@H](N)[C@H](O)[C@H](C)O1` [DOXORUBICIN], the IC50 in data set [3] amounted to 7460 nM; in data set [2], 2750 nM. Also, the IC50 at 3 days in data set [4] was determined as 79700 nM.
